Test results published in US20250296942A1, “Phosphonate-Based Coordination Complexes and Methods of Preparation and Use Thereof” (University of Puerto Rico, priority 2021, published 2025).
One block for each compound: values may come before it.

Legend:
[1] = test system: human osteoblast hFOB 1.19 cell line; assay: AlamarBlue cytotoxicity, 2,2′-BPBPA series, hFOB 1.19; assay type: cell-based
Experimental: (§1) Cell culture methods. MCF-7 and MDA-MB-231 were incubated using DMEM at 37° C. in 5% CO2. The hFOB 1.19 cell lines were incubated with DMEM: F12 at 34° C. in 5% CO2.
(§2) Cell lines were supplemented using 10% FBS and 1% Pen-Strep. The media was replaced twice per week. Cell passages were carried out at 80% confluency.
(§3) Cell-based assays. Cell lines were seeded in 96 well plates at a density of 5x 10^3 cells/mL and incubated for 24 h before treatment. Cells were treated with 100 μL of 2,2′-BPBPA (0-400 μM), unloaded and loaded nano-Ca@2,2′-BPBPA (6.3-50 μM) for 24, 48, and 72 h.
(§4) Control groups were treated with media (DMEM or DMEM: F12) supplemented with 1% Pen-Strep. Cell viability was determined by employing AlamarBLue@. The media was replaced with 100 μL of 10% AlamarBlue® solution. After 24 h of incubation, the fluorescence was assessed at )max of 560 nm for excitation and 590 nm for emission.
(§5) Cell culture methods. MCF-7 and MDA-MB-231 were incubated using DMEM at 37° C. in 5% CO2. The hFOB 1.19 cell lines were incubated with DMEM: F12 at 34° C. in 5% CO2. Cell lines were supplemented using 10% FBS and 1% Pen-Strep. The media was replaced twice times per week. Cell passages were carried out at 80% confluency.
Seeding. […]
AlamarBlue@assay. […] Then, the fluorescence was assessed at 560 nm of excitation and λmax 590 nm of emission. […]

[2] = test system: human breast cancer MCF-7 cell line; assay: AlamarBlue cytotoxicity, 2,2′-BPBPA series, MCF-7; assay type: cell-based
Experimental: as §1, §2, §3, §4, §5
Seeding. Cell lines were seeded in 96 well plates at a density of 5×10^3 cells/mL; cells were incubated for 24 h before each treatment.
Treatment. Cell lines were treated with 100 μL of 2,2′-BPBPA (0-400 μM), unloaded and loaded nano-Ca@2,2′-BPBPA (6.3-50 μM). Control groups were treated with media (DMEM or DMEM: F12) supplemented with 1% Pen-Strep. All cell-based assays were conducted for 24, 48, and 72 h of treatment. Experiments were performed in triplicate.
AlamarBlue@assay. To determine the cell viability, the media was removed and replaced with 100 μL of 10% AlamarBlue® solution. The 96 well plates were incubated for 4 h before the measurements. Then, the fluorescence was assessed at 560 nm of excitation and λmax 590 nm of emission. The IC50 curves for MCF-7, MDA-MB-231, and hFOB 1.19 cell lines treated with 2,2′-BPBPA are presented in FIGS. 211A-211C, 212A-212C, and 213A-213C.

[3] = Dissolution of 2,2′-BPBPA-based BPCCs in PBS (2,2′-BPBPA released, 299 nm); assay type: physicochemical; settings: 37° C., 150 rpm, mean n = 2
Experimental: Dissolution experiment. In a 250 mL beaker was tranfer 100 mL of PBS or FaSSGF.
Subsequently, this solution was allowed to reach 37° C. at 150 rpm. Then, individually ˜10.0 mg of powdered 2,2′-BPBPA-based BPCCs were added to the PBS or FaSSGF solution. Aliquots (1 mL) were taken out at different time points (0, 1, 3, 6, 24, 48, and 72 h) and diluted with PBS or FaSSGF in 5 mL volumetric flasks. An aliquot (1 mL) was taken out before adding the 2,2′-BPBPA-based BPCCs to record the first time point (0 h). The dissolution experiments were performed in duplicate for each 2,2′-BPBPA-based BPCC. The absorbance of the 2,2′-BPBPA released from these materials was assessed at 299 (PBS) and 318 (FaSSGF) nm.
The release of 2,2′-BPBPA from the coordination complexes was assessed in physiological conditions (PBS, pH=7.40 and FaSSGF, pH=1.60). The absorbance of the supernatant was measured at the lambda of maximum absorption to determine the quantity of 2,2′-BPBPA release over time in PBS (λmax=299 nm) and FaSSGF (λmax=318 nm) at 37° C. It was observed that the 2,2′-BPBPA-based BPCCs release from 8 to 13% of 2,2′-BPBPA in neutral conditions (FIG. 160A). […] In acidic conditions, these 2,2′-BPBPA-based BPCCs release from 64 to 90% of 2,2′-BPBPA. The 2,2′-BPBPA-Ca (90%) and 2,2′-BPBPA-Zn (84%) presented the highest release of the ligand contrasted with 2,2′-BPBPA-Mg (64%) in FaSSGF (FIG. 160B). In particular, the 2,2′-BPBPA-Ca collapsed almost completely, indicating the possible ability of this material to degrade once in the acid environment of metastatic cancerous cells and be able to release potential cargo drugs.
Dissolution experiment. In a 250 mL beaker was tranfer 100 mL of PBS. Subsequently, this solution was allowed to reach 37° C. at 150 rpm. Then, individually ˜10.0 mg of powdered 2,2′-BPBPA-based BPCCs were added to the PBS solution. Aliquots (1 mL) were taken out at different time points (0, 1, 3, 6, 24, 48, and 72 h) and diluted with PBS in 5 mL volumetric flasks. An aliquot (1 mL) was taken out before adding the 2,2′-BPBPA-based BPCCs to record the first time point (0 h). The absorbance of the 2,2′-BPBPA released from these materials was assessed at 299 nm. The dissolution experiments were performed in duplicate for each 2,2′-BPBPA-based BPCC. The percentage (%) of 2,2′-BPBPA released in PBS from these complexes is illustrated in Table 30.

[4] = Hydroxyapatite (HA) affinity/binding assay of 2,2′-BPBPA and nano-Ca@2,2′-BPBPA; settings: 0.5 mg/mL, HA 20 mg, PBS, duplicate
[5] = test system: human breast cancer MDA-MB-231 cell line; settings: previously reported; cited from earlier work

- % Released (2,2′-BPBPA released in PBS) ([3]; 0 h (aliquot before addition)): 0%
- % Released (2,2′-BPBPA released in PBS) ([3]; 1 h): 88%
- % Released (2,2′-BPBPA released in PBS) ([3]; 3 h): 90%
- % Released (2,2′-BPBPA released in PBS) ([3]; 6 h): 91%
- % Released (2,2′-BPBPA released in PBS) ([3]; 24 h): 97%
- % Released (2,2′-BPBPA released in PBS) ([3]; 48 h): 97%
- % Released (2,2′-BPBPA released in PBS) ([3]; 72 h): 97%
- Amount (%) bound to HA, Mean ([4]; 5 d): 82%
- Amount (%) bound to HA, Mean ([4]; 6 d): 88%
Compound: O=P(O)(O)c1ccc(-c2ccc(P(=O)(O)O)cn2)nc1 [2,2′-BPBPA, 2,2′-bipyridine-5,5′-bisphosphonic acid]
- IC50 ([1]; Homo sapiens, Osteoblast, 72 h): > 188 µM
- IC50 ([2]; Homo sapiens, MCF7, 72 h): 134 ± 2 µM

Compound: N#Cc1ccc(C(c2ccc(C#N)cc2)n2cncn2)cc1 [LET, letrozole]
- % RCL ([1]; 6.3-50 μM, 24, 48, 72 h): ~99%
- % RCL ([2]; 6.3 μM, 24 h): about 100±2%
- % RCL ([2]; 6.3 μM, 48 h): ~79 ±1%
- % RCL ([2]; 6.3 μM, 72 h): ~74±3%
- % RCL ([2]; 12.5 μM, 24 h): 100±2%
- % RCL ([2]; 12.5 μM, 48 h): 71±3%
- % RCL ([2]; 12.5 μM, 72 h): 68±2%
- % RCL ([2]; 25 μM, 24 h): 100±1%
- % RCL ([2]; 25 μM, 72 h): 46±2%
- % RCL ([2]; 50 μM, 24 h): 99±1%
- % RCL ([2]; 50 μM, 72 h): 40±1%
- IC50 [5]: > 200 µM
